These results are taken from article PMC6213923, “Meroterpenoids and Isocoumarinoids from a Myrothecium Fungus Associated with Apocynum venetum” (Marine Drugs, 2018).

SMILES strings stand for the structures.

Data set [1] deals with human-sourced α-glucosidase recombinant expressed in Saccharomyces cerevisiae. Briefly: α-glucosidase inhibitory assay (pNPG substrate). It counts as biochemical. As to conditions: PBS pH 6.8, 37 °C, absorbance at 405 nm, preliminarily investigated, read-out: α-glucosidase inhibition IC50. Here is the method:
The α-glucosidase inhibitory activity of 1–13 was preliminarily investigated.
The sample was dissolved in sodium phosphate buffer (PBS, pH 6.8) at three concentrations. 10 μL of the sample solution, 20 μL of 2.5 mM pNPG solution (in phosphate buffer) and 20 μL of PBS were mixed in a 96-well microplate and incubated at 37 °C for 5 min. A volume of 10 μL of α-glucosidase diluted to 0.2 U/mL by 0.01 M PBS was then added to each well. After incubating at 37 °C for 15 min, the absorbance at 405 nm was recorded by a Spectra max 190 micro plate reader (Molecular Devices Inc., San Jose, CA, USA). The blank was prepared by adding phosphate buffer instead of the α-glucosidase and the positive control was acarbose. […] The inhibition (%) was calculated as [1 − (ODdrug/ODblank)] × 100%.

For the molecule `COc1cc(O)c2c(=O)occ(C(=O)CO)c2c1` [Compound 7, Myrothelactone C], the melting point (as a rule, the temperature of the solid-liquid transition) was in the range of 160 to 161 °C. Besides, the IC50 (usually the concentration that gives 50% inhibition) in data set [1] is 36 µM.

Take `C[C@H]1O[C@H](O[C@H]2[C@H](O)[C@@H](O)[C@@H](O[C@H]3[C@H](O)[C@@H](O)C(O)O[C@@H]3CO)O[C@@H]2CO)[C@H](O)[C@@H](O)[C@@H]1N[C@H]1C=C(CO)[C@@H](O)[C@H](O)[C@H]1O` (stereo partly shown) [acarbose, reference compound]: the IC50 in data set [1] turned out to be 470 µM.

On to `COc1cc(O)c2c(=O)oc(CO)c(CO)c2c1` [Compound 9, tubakialactone B], for which the IC50 in data set [1] was 26 µM. On the same count and under the same terms, the value for `CC(=O)O[C@@H]1C[C@@]2(C)[C@@H](CC[C@@H](C)[C@]23Cc2c(cc(CO)c(C=O)c2O)O3)C(C)(C)[C@H]1O` [Compound 1, Myrothecisin A] was 500 µM; that for `COc1cc(O)c2c(=O)occ(C(O)CO)c2c1` (stereo not shown) [Compound 5, Myrothelactone A] was 320 µM; that for `Cc1c(CO)oc(=O)c2c(O)cc(O)cc12` [Compound 10, acremonone G] was 370 µM. On the same count and under the same terms, the value for `CC(=O)O[C@H]1[C@H](O)C[C@@]2(C)[C@@H](CC[C@@H](C)[C@]23Cc2c(cc(CO)c(C=O)c2O)O3)C1(C)C` [Compound 2, Myrothecisin B] was 660 µM. Same read-out and setting: the value for `CC(=O)O[C@H]1CC=C2[C@@H](CC[C@@H](C)[C@@]2(C)Cc2c(O)cc(CO)c(C=O)c2O)C1(C)C` [Compound 3, Myrothecisin C] was 58 µM; that for `C[C@@H]1CC[C@@H]2C(=CC[C@H](O)C2(C)C)[C@]1(C)Cc1c(O)cc(CO)c(C=O)c1O` [Compound 4, Myrothecisin D] was 200 µM.
